Laboratory results taken from ChEMBL document CHEMBL1201862, “PubChem BioAssay data set” (2004).
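All cell lines were grown in 96-well plates and treated with compound for 48 hours. GI50 is the concentration that inhibits growth by half.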 Calls of active or inactive are those of the source. No stated cut-off is given here; in the data, active = GI50 up to about 1.1 µM and inactive = higher.

Legend:
Assay in all cases: growth of human tumour cells (NCI), 48 h
A498 = tested on: A498
A549 = tested on: A549
DU-145 = tested on: DU-145
HL-60 = tested on: HL-60
HT-29 = tested on: HT-29
Hs-578T = tested on: Hs-578T
NCI-H460 = tested on: NCI-H460
OVCAR-3 = tested on: OVCAR-3
RXF 393 = tested on: RXF 393
SF-268 = tested on: SF-268
SF-295 = tested on: SF-295
SK-MEL-28 = tested on: SK-MEL-28
SK-MEL-2 = tested on: SK-MEL-2
SN12C = tested on: SN12C
SNB-75 = tested on: SNB-75
SR = tested on: SR
TK-10 = tested on: TK-10
UACC-257 = tested on: UACC-257
UO-31 = tested on: UO-31
SW-620 = tested on: SW-620

SMILES	GI50 (A498)	GI50 (A549)	GI50 (DU-145)	GI50 (HL-60)	GI50 (HT-29)	GI50 (Hs-578T)	GI50 (NCI-H460)	GI50 (OVCAR-3)	GI50 (RXF 393)	GI50 (SF-268)	GI50 (SF-295)	GI50 (SK-MEL-28)	GI50 (SK-MEL-2)	GI50 (SN12C)	GI50 (SNB-75)	GI50 (SR)	GI50 (TK-10)	GI50 (UACC-257)	GI50 (UO-31)	GI50 (SW-620)
CC(=O)N(C(=O)CC(=O)NNCc1ccccc1Cl)c1ccc(Cl)cc1	> 10 µM (inactive)	> 10 µM (inactive)	> 10 µM (inactive)	> 10 µM (inactive)	> 10 µM (inactive)	> 10 µM (inactive)	> 10 µM (inactive)	> 10 µM (inactive)	> 10 µM (inactive)	> 10 µM (inactive)	> 10 µM (inactive)	> 10 µM (inactive)	> 10 µM (inactive)	> 10 µM (inactive)	> 10 µM (inactive)	> 10 µM (inactive)	> 10 µM (inactive)	> 10 µM (inactive)	> 10 µM (inactive)	–
CCOC(=O)/C(=C\c1c(C)[nH]c2ccccc12)P(=O)(OCC)OCC	> 100 µM (inactive)	> 100 µM (inactive)	> 100 µM (inactive)	–	> 100 µM (inactive)	> 100 µM (inactive)	> 100 µM (inactive)	> 100 µM (inactive)	> 100 µM (inactive)	> 100 µM (inactive)	> 100 µM (inactive)	> 100 µM (inactive)	–	> 100 µM (inactive)	> 100 µM (inactive)	> 100 µM (inactive)	> 100 µM (inactive)	> 100 µM (inactive)	–	> 100 µM (inactive)
CCCCCCCCCN1CCC(=O)C(C(=O)OC)C1 (stereo unspecified)	19 µM (inactive)	16.6 µM (inactive)	15.1 µM (inactive)	1.53 µM (inactive)	10.1 µM (inactive)	17.1 µM (inactive)	17.6 µM (inactive)	15.5 µM (inactive)	17.1 µM (inactive)	16.3 µM (inactive)	17.3 µM (inactive)	–	–	16 µM (inactive)	17.9 µM (inactive)	3.86 µM (inactive)	16.7 µM (inactive)	11 µM (inactive)	10.3 µM (inactive)	11.9 µM (inactive)
OC(COC(c1ccccc1)(c1ccccc1)c1ccccc1)C(O)CC1SCCS1 (stereo unspecified)	13.9 µM (inactive)	–	17.9 µM (inactive)	13.9 µM (inactive)	12.4 µM (inactive)	12.2 µM (inactive)	–	22.2 µM (inactive)	10.2 µM (inactive)	25.4 µM (inactive)	–	21.5 µM (inactive)	11.5 µM (inactive)	17.7 µM (inactive)	–	0.0275 µM (active)	21 µM (inactive)	27 µM (inactive)	10.9 µM (inactive)	29 µM (inactive)
COc1ccc2c(c1)CC[C@@H]1C2CC[C@]2(C)OC(=O)CCC12 (stereo partly specified)	38.6 µM (inactive)	27.9 µM (inactive)	43.6 µM (inactive)	> 100 µM (inactive)	19.8 µM (inactive)	14.4 µM (inactive)	22.7 µM (inactive)	11.6 µM (inactive)	12.7 µM (inactive)	12.1 µM (inactive)	18.3 µM (inactive)	16.8 µM (inactive)	23.1 µM (inactive)	14.8 µM (inactive)	–	5.12 µM (inactive)	34.2 µM (inactive)	12.8 µM (inactive)	17.9 µM (inactive)	10.7 µM (inactive)
O=c1c2c3c(sc2nc2n1N=CN(c1ccccc1)C2)CCCC3	> 100 µM (inactive)	> 100 µM (inactive)	> 100 µM (inactive)	–	> 100 µM (inactive)	> 100 µM (inactive)	> 100 µM (inactive)	> 100 µM (inactive)	> 100 µM (inactive)	> 100 µM (inactive)	> 100 µM (inactive)	> 100 µM (inactive)	> 100 µM (inactive)	> 100 µM (inactive)	> 100 µM (inactive)	> 100 µM (inactive)	> 100 µM (inactive)	> 100 µM (inactive)	> 100 µM (inactive)	> 100 µM (inactive)
CCOC(=O)c1cc2c([nH]1)C(=O)CC1=C2CCN1Cc1ccccc1	15.3 µM (inactive)	21.4 µM (inactive)	15.2 µM (inactive)	7.4 µM (inactive)	16 µM (inactive)	20.4 µM (inactive)	18.4 µM (inactive)	–	13.9 µM (inactive)	21.3 µM (inactive)	18.5 µM (inactive)	17.2 µM (inactive)	20.5 µM (inactive)	18.2 µM (inactive)	23.3 µM (inactive)	5.02 µM (inactive)	13.9 µM (inactive)	17.4 µM (inactive)	15.3 µM (inactive)	5.36 µM (inactive)
CN(C)CCOc1ccc2[nH]c(C(=O)N3CC(CCl)c4ccc(N)cc43)cc2c1 (stereo unspecified)	0.208 µM (active)	0.0667 µM (active)	0.0323 µM (active)	–	< 0.0358 µM (active)	0.176 µM (active)	0.0273 µM (active)	0.0631 µM (active)	0.0182 µM (active)	0.0375 µM (active)	0.0885 µM (active)	0.126 µM (active)	0.0653 µM (active)	0.108 µM (active)	0.112 µM (active)	< 0.0179 µM (active)	0.29 µM (active)	0.151 µM (active)	0.065 µM (active)	0.121 µM (active)
